Data: PubChem BioAssay AID1919015 (Molecular Pharmacology Branch, DTP, NCI, 2023)

Tested on: OVCAR-5 complex spheroids with HUVEC/MSC, viability, % test/control
Assay: Anticancer human tumor OVCAR-5 cell line growth inhibition [AhR];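 note: spheroids exposed to compounds for 7 days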;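 for viability, T/C: 100% = DMSO vehicle control wells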
Conditions: for IC50: curve of first compound; for viability, T/C: stronger effect = lower value
In short: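 Complex tumor spheroids co-cultured with HUVEC and human MSC stroma; AhR antagonists tested in combination with standard-of-care and investigational agents. Top concentration at or near clinical Cmax (else 10 microM), half-log dilutions; growth expressed as percent test/control.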

[1] = second compound 0.1 µM, first compound 0.0316 µM
[2] = second compound 0.1 µM, first compound 0.1 µM
[3] = second compound 0.1 µM, first compound 0.316 µM
[4] = second compound 0.1 µM, first compound 1 µM
[5] = second compound 0.1 µM, first compound 3.16 µM
[6] = second compound 0.1 µM, first compound 10 µM
[7] = second compound 0.316 µM, first compound 0.0316 µM
[8] = second compound 0.316 µM, first compound 0.1 µM
[9] = second compound 0.316 µM, first compound 0.316 µM
[10] = second compound 0.316 µM, first compound 1 µM
[11] = second compound 0.316 µM, first compound 3.16 µM
[12] = second compound 0.316 µM, first compound 10 µM
[13] = second compound 1 µM, first compound 0.0316 µM
[14] = second compound 1 µM, first compound 0.1 µM
[15] = second compound 1 µM, first compound 0.316 µM
[16] = second compound 1 µM, first compound 1 µM
[17] = second compound 1 µM, first compound 3.16 µM
[18] = second compound 1 µM, first compound 10 µM
[19] = second compound 3.16 µM, first compound 0.0316 µM
[20] = second compound 3.16 µM, first compound 0.1 µM
[21] = second compound 3.16 µM, first compound 0.316 µM
[22] = second compound 3.16 µM, first compound 1 µM
[23] = second compound 3.16 µM, first compound 3.16 µM
[24] = second compound 3.16 µM, first compound 10 µM
[25] = second compound 10 µM, first compound 0.0316 µM
[26] = second compound 10 µM, first compound 0.1 µM
[27] = second compound 10 µM, first compound 0.316 µM
[28] = second compound 10 µM, first compound 1 µM
[29] = second compound 10 µM, first compound 3.16 µM
[30] = second compound 10 µM, first compound 10 µM

## CC1(C)CCC(CN2CCN(c3ccc(C(=O)NS(=O)(=O)c4ccc(NCC5CCOCC5)c([N+](=O)[O-])c4)c(Oc4cnc5[nH]ccc5c4)c3)CC2)=C(c2ccc(Cl)cc2)C1 + Cc1cncc(-c2nc(NCCc3c[nH]c4ccccc34)c3ncn(C(C)C)c3n2)c1
Second compound 0.1 µM
  IC50: > 10000 nM
Second compound 0.316 µM
  IC50: > 10000 nM
Second compound 1 µM
  IC50: > 10000 nM
Second compound 3.16 µM
  IC50: > 10000 nM
Second compound 10 µM
  IC50: < 31.6 nM
[1]
  viability, T/C: 105%
[2]
  viability, T/C: 103%
[3]
  viability, T/C: 106%
[4]
  viability, T/C: 106%
[5]
  viability, T/C: 109%
[6]
  viability, T/C: 90.1%
[7]
  viability, T/C: 101%
[8]
  viability, T/C: 103%
[9]
  viability, T/C: 102%
[10]
  viability, T/C: 105%
[11]
  viability, T/C: 109%
[12]
  viability, T/C: 89.5%
[13]
  viability, T/C: 101%
[14]
  viability, T/C: 100%
[15]
  viability, T/C: 102%
[16]
  viability, T/C: 103%
[17]
  viability, T/C: 104%
[18]
  viability, T/C: 86.8%
[19]
  viability, T/C: 81.5%
[20]
  viability, T/C: 85.6%
[21]
  viability, T/C: 86.3%
[22]
  viability, T/C: 83.4%
[23]
  viability, T/C: 88.5%
[24]
  viability, T/C: 75.3%
[25]
  viability, T/C: 4.28%
[26]
  viability, T/C: 4.26%
[27]
  viability, T/C: 5.72%
[28]
  viability, T/C: 3.52%
[29]
  viability, T/C: 4.43%
[30]
  viability, T/C: 9.47%

## CCN(c1cc(-c2ccc(CN3CCOCC3)cc2)cc(C(=O)NCc2c(C)cc(C)[nH]c2=O)c1C)C1CCOCC1 + Cc1cncc(-c2nc(NCCc3c[nH]c4ccccc34)c3ncn(C(C)C)c3n2)c1
Second compound 0.1 µM
  IC50: > 3000 nM
Second compound 0.316 µM
  IC50: > 3000 nM
Second compound 1 µM
  IC50: > 3000 nM
Second compound 3.16 µM
  IC50: > 3000 nM
Second compound 10 µM
  IC50: < 9.49 nM
Second compound 0.1 µM, first compound 0.00949 µM
  viability, T/C: 101%
Second compound 0.1 µM, first compound 0.03 µM
  viability, T/C: 101%
Second compound 0.1 µM, first compound 0.0949 µM
  viability, T/C: 98.9%
Second compound 0.1 µM, first compound 0.3 µM
  viability, T/C: 97.3%
Second compound 0.1 µM, first compound 0.949 µM
  viability, T/C: 97.1%
Second compound 0.1 µM, first compound 3 µM
  viability, T/C: 96.7%
Second compound 0.316 µM, first compound 0.00949 µM
  viability, T/C: 102%
Second compound 0.316 µM, first compound 0.03 µM
  viability, T/C: 100%
Second compound 0.316 µM, first compound 0.0949 µM
  viability, T/C: 96.5%
Second compound 0.316 µM, first compound 0.3 µM
  viability, T/C: 97.8%
Second compound 0.316 µM, first compound 0.949 µM
  viability, T/C: 94.7%
Second compound 0.316 µM, first compound 3 µM
  viability, T/C: 98.2%
Second compound 1 µM, first compound 0.00949 µM
  viability, T/C: 93.4%
Second compound 1 µM, first compound 0.03 µM
  viability, T/C: 93.4%
Second compound 1 µM, first compound 0.0949 µM
  viability, T/C: 97%
Second compound 1 µM, first compound 0.3 µM
  viability, T/C: 90.6%
Second compound 1 µM, first compound 0.949 µM
  viability, T/C: 89.7%
Second compound 1 µM, first compound 3 µM
  viability, T/C: 89.6%
Second compound 3.16 µM, first compound 0.00949 µM
  viability, T/C: 78.5%
Second compound 3.16 µM, first compound 0.03 µM
  viability, T/C: 79%
Second compound 3.16 µM, first compound 0.0949 µM
  viability, T/C: 80.2%
Second compound 3.16 µM, first compound 0.3 µM
  viability, T/C: 75.3%
Second compound 3.16 µM, first compound 0.949 µM
  viability, T/C: 72.7%
Second compound 3.16 µM, first compound 3 µM
  viability, T/C: 70.4%
Second compound 10 µM, first compound 0.00949 µM
  viability, T/C: 14.8%
Second compound 10 µM, first compound 0.03 µM
  viability, T/C: 16%
Second compound 10 µM, first compound 0.0949 µM
  viability, T/C: 15.4%
Second compound 10 µM, first compound 0.3 µM
  viability, T/C: 6.52%
Second compound 10 µM, first compound 0.949 µM
  viability, T/C: 2.63%
Second compound 10 µM, first compound 3 µM
  viability, T/C: 1.33%

## Cn1ncnc1C1c2n[nH]c(=O)c3cc(F)cc(c23)NC1c1ccc(F)cc1 (stereo not given) + Cc1cncc(-c2nc(NCCc3c[nH]c4ccccc34)c3ncn(C(C)C)c3n2)c1
Second compound 0.1 µM
  IC50: > 100 nM
Second compound 0.316 µM
  IC50: > 100 nM
Second compound 1 µM
  IC50: > 100 nM
Second compound 3.16 µM
  IC50: > 100 nM
Second compound 10 µM
  IC50: < 0.316 nM
Second compound 0.1 µM, first compound 0.000316 µM
  viability, T/C: 99.4%
Second compound 0.1 µM, first compound 0.001 µM
  viability, T/C: 102%
Second compound 0.1 µM, first compound 0.00316 µM
  viability, T/C: 103%
Second compound 0.1 µM, first compound 0.01 µM
  viability, T/C: 104%
[1]
  viability, T/C: 101%
[2]
  viability, T/C: 99.2%
Second compound 0.316 µM, first compound 0.000316 µM
  viability, T/C: 101%
Second compound 0.316 µM, first compound 0.001 µM
  viability, T/C: 104%
Second compound 0.316 µM, first compound 0.00316 µM
  viability, T/C: 100%
Second compound 0.316 µM, first compound 0.01 µM
  viability, T/C: 99.2%
[7]
  viability, T/C: 99.4%
[8]
  viability, T/C: 95.2%
Second compound 1 µM, first compound 0.000316 µM
  viability, T/C: 98.1%
Second compound 1 µM, first compound 0.001 µM
  viability, T/C: 97.9%
Second compound 1 µM, first compound 0.00316 µM
  viability, T/C: 95.8%
Second compound 1 µM, first compound 0.01 µM
  viability, T/C: 96.4%
[13]
  viability, T/C: 94.6%
[14]
  viability, T/C: 93.6%
Second compound 3.16 µM, first compound 0.000316 µM
  viability, T/C: 85%
Second compound 3.16 µM, first compound 0.001 µM
  viability, T/C: 87.3%
Second compound 3.16 µM, first compound 0.00316 µM
  viability, T/C: 86.3%
Second compound 3.16 µM, first compound 0.01 µM
  viability, T/C: 87.7%
[19]
  viability, T/C: 83.4%
[20]
  viability, T/C: 89.5%
Second compound 10 µM, first compound 0.000316 µM
  viability, T/C: 26.6%
Second compound 10 µM, first compound 0.001 µM
  viability, T/C: 28.5%
Second compound 10 µM, first compound 0.00316 µM
  viability, T/C: 30.9%
Second compound 10 µM, first compound 0.01 µM
  viability, T/C: 27.2%
[25]
  viability, T/C: 23%
[26]
  viability, T/C: 30.7%

## NS(=O)(=O)OCC1CC(n2ccc3c(NC4CCc5ccccc54)ncnc32)CC1O (stereo not given) + Cc1cncc(-c2nc(NCCc3c[nH]c4ccccc34)c3ncn(C(C)C)c3n2)c1
Second compound 0.1 µM
  IC50: 152 nM
Second compound 0.316 µM
  IC50: 114 nM
Second compound 1 µM
  IC50: 91.8 nM
Second compound 3.16 µM
  IC50: 98 nM
Second compound 10 µM
  IC50: < 31.6 nM
[1]
  viability, T/C: 86.4%
[2]
  viability, T/C: 57.5%
[3]
  viability, T/C: 37.2%
[4]
  viability, T/C: 17.6%
[5]
  viability, T/C: 13.1%
[6]
  viability, T/C: 12.2%
[7]
  viability, T/C: 78%
[8]
  viability, T/C: 51.5%
[9]
  viability, T/C: 33%
[10]
  viability, T/C: 16.5%
[11]
  viability, T/C: 13.6%
[12]
  viability, T/C: 12.3%
[13]
  viability, T/C: 69.7%
[14]
  viability, T/C: 47.4%
[15]
  viability, T/C: 31.6%
[16]
  viability, T/C: 16.6%
[17]
  viability, T/C: 11.3%
[18]
  viability, T/C: 10.7%
[19]
  viability, T/C: 64%
[20]
  viability, T/C: 50.2%
[21]
  viability, T/C: 22.7%
[22]
  viability, T/C: 10.7%
[23]
  viability, T/C: 6.17%
[24]
  viability, T/C: 4.99%
[25]
  viability, T/C: 3.84%
[26]
  viability, T/C: 3.41%
[27]
  viability, T/C: 2.74%
[28]
  viability, T/C: 2.03%
[29]
  viability, T/C: 0.83%
[30]
  viability, T/C: 0.48%
